Structures can show the parent of a compound that is named as a salt.
Key:
[1] = test system: proIL-1β, TNFα, iNOS, IL-6, MCP-1 and IL-12; test: Inflammation marker expression in palmitate-stimulated L1 adipocytes (RT-qPCR); assay type: cell-based; conditions: 10 mM, palmitate 500 μM, 24 h
Procedure: Palmitate is a saturated fatty acid that simulates an experimental obese state. It can be used as a pro-inflammatory stimulant for cytokines such as proIL-1β, TNFα, iNOS, IL-6, MCP-1 and IL-12.
Next, the relative expression of inflammation markers was analyzed by RT and qPCR using HPRT-1 as a normalizer and the untreated cell expression levels as a reference (for MCP-1 and IL-12) or those treated palmitate. After the treatments, culture media were collected and subsequently analyzed, cells were washed with PBS, and RNA was extracted (illustra RNAspin Mini, GE Healthcare) and reverse transcribed (High Capacity cDNA Reverse Transcription Kit, Life Technologies). The expression of the genes that were the object of the study was analyzed by qPCR using specific probes (TaqMan® Gene Expression Assays, Life Technologies). The relative expression (RQ), represented in the figure, was calculated by the ΔΔCt method.

IRS2−/− (KO) mice = test: Fasting glycemia and insulinemia in female IRS2−/− mice; assay type: in vivo, mouse; conditions: 4 weeks
Excerpt: Insulin resistance characterizes type 2 diabetes, obesity, and the metabolic syndrome. Thus, insulin sensitivity is a major therapeutic objective for these metabolic diseases. Insulin receptor substrate (IRS) proteins regulate the physiological actions of insulin upon binding to the receptor. Specific deletion of IRS2 in mice produces diabetes due to a developmental reduction of the pancreatic β-cell mass and the inability of existing β-cells to expand in response to peripheral insulin resistance. Additionally, IRS2-deficiency in mice causes hepatic insulin resistance concurrent with failed suppression of hepatic glucose production. While male IRS2−/− mice often die of diabetic complications by 12 weeks of age, females IRS2−/− mice develop a milder form of diabetes and many live up to 6 months. The observation that female IRS2−/− mice eat more than controls led to the discovery that this molecule is critical for hypothalamic regulation of food intake.
The mean glycemic values are represented per group (n=3) pre-treatment (black bars) and post-treatment (gray bars) along with their standard deviations. […] The fasting serum insulin levels taken pre-treatment (black bars) and post-treatment (gray bars) were determined using a kit (Millipore), following the manufacturer's instructions. Mean values and standard deviations are presented for each group (n=3) (FIG. 12D).
Due to peripheral resistance to insulin, the IRS2−/− mice also develop hyperinsulinemia.

VAPA and VAMPs = test: Colocalization of VAPA and VAMPs (FIG. 18)
[2] = test system: IRS2 knockout mice (KO IRS2); test: Body weight in IRS2 knockout mice; assay type: in vivo, mouse; conditions: 100 mg/kg/day, 8 weeks
Procedure: Body weight of the mice was measured prior to the onset of treatment, at 4 weeks after treatment, and at 8 weeks after treatment. There were 8 mice in each group at the pre-treatment and 4-week treatment time points. […] Statistical differences between the experimental groups shown in FIG. 20 were assessed by Student's T test. P value of <0.05 is indicated by *.

C57BL/6 mice = test: Glycemia and dietary intake in C57BL/6 mice; assay type: in vivo, mouse; conditions: 1 week
Excerpt: The mean glycemic values at the beginning and end of the experiment are represented for each group (n=3) with their standard deviations.

GPBP = biological target: T1, GPBP (Homo sapiens, UniProt Q9Y5P4); conditions: 1 mM, 24 h
T1 sequence (Q9Y5P4 1-624): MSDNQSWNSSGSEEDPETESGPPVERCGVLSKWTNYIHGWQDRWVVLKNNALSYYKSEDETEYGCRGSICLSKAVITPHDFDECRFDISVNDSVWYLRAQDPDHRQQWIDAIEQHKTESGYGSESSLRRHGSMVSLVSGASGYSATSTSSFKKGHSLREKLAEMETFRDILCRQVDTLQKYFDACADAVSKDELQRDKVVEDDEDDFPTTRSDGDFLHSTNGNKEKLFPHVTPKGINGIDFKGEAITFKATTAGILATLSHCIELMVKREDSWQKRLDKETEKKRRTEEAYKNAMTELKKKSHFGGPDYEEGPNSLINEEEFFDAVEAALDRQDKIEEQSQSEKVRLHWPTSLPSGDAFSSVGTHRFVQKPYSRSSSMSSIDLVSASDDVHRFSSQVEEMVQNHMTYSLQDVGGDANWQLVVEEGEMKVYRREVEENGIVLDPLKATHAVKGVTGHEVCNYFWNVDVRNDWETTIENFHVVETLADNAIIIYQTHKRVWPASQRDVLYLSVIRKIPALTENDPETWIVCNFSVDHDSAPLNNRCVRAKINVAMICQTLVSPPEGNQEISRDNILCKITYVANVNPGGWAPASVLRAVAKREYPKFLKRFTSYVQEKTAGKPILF

C2C12 myotubes = test: Glucose concentration of C2C12 myotube cultures in M1 macrophage conditioned media; assay type: cell-based, mouse; conditions: macrophages treated with 10 mM for 2 h, then LPS/IFNγ 16 h
Procedure: There is considerable evidence showing that inflammation and hyperglycemia are interconnected: inflammation induces hyperglycemia and reciprocally hyperglycemia induces inflammation with the molecular bases not elucidated yet. To explore the participation of GPBP, glucose intake under normoglycemic conditions with conditioned media generated by macrophages differentiated to a proinflammatory M1 phenotype was monitored.
[…]. The glucose concentration of the myotube cultures was determined at different times with Glucocard (Arkray). The controls used were the C2C12 cultured with media conditioned with no stimulated macrophages (Cells) or with M1 conditioned media (M1). The initial glucose levels (time 0) were used as a reference (100%) in each series.

[3] = test system: IRS2 knockout mice (KO IRS2); test: Serum triglycerides in IRS2 knockout mice; assay type: in vivo, mouse; conditions: 100 mg/kg/day, 8 weeks, fasting
Procedure: At the 8-week treatment time point, there were 8 mice in each of the WT groups, 6 mice in the KO IRS2 untreated control group, 7 mice in the KO IRS2 SLN1 treated group, and 8 mice in the KO SLN2 treated group. Blood was collected at the time of sacrifice and used to measure TG under fasting conditions. […] Statistical differences between the experimental groups shown in FIG. 21 were assessed by Student's T test. P value of <0.05 is indicated by *.

AS160 = test: In vitro AS160 phosphorylation in the presence of GPBP, AMPK and AKT; assay type: biochemical; conditions: 5 mM, with FLAG-GPBP, AKT, AMPK
Procedure: The reactions (25 μL) were carried out at 30° C., and stirred (350 rpm) for 15 min. Then, they were stopped with a reducing loading buffer, heated (95° C., 2 min), and analyzed using electrophoresis, electrotransfer, and autoradiography.

GLUT4 = GLUT4 translocation (FIG. 19A)
clinical [4] = conditions: both, human, in vivo, oral
clinical [5] = conditions: both, human, in vivo
[6] = Stage B, ANOVA of repeated measures

SMILES | inflammatory response of palmitate-stimulated adipocytes [1] | fasting glycemia post-treatment (IRS2−/− (KO) mice; 100 mg/kg/day with food, 10-12 weeks old) | fasting insulin levels (IRS2−/− (KO) mice; 100 mg/kg/day) | colocalization of VAPA and VAMPS (VAPA and VAMPs) | colocalization of VAPA and VAMPS, comparison SLN1 vs SLN2 (VAPA and VAMPs) | average body weight, post- vs pre-treatment [2] | glycemia, end vs beginning (C57BL/6 mice; 100 mg/kg/day mixed with solid food, n=3) | food intake compared to untreated mice (C57BL/6 mice; 100 mg/kg/day) | high molecular weight GPBP aggregates (GPBP) | glucose levels of myotube cultures (hyperglycemic levels) (C2C12 myotubes) | serum triglycerides compared to untreated KO IRS2 [3] | phosphorylation of AS160 (AS160) | GLUT4 translocation (GLUT4) | AUC (clinical [4]) [µg·h/mL] | AUC (clinical [4]; 1240 mg) [µg·h/mL] | AUC (clinical [5]) [µg·h/mL] | Ln AUCt, Ln AUC12 and Ln AUC0, differences attributed to formula, period and sequence factors [6] | Ln Cmax, differences attributed to formula, period and sequence factors [6] | Ln Cmin, differences attributed to formula, period and sequence factors [6]
CN(C)C(=N)N=C(N)N [Metformin hydrochloride, metformin hydrochloride, reference compound] | attenuated the inflammatory response | slightly lower, though not statistically significant | higher than at the initiation of the experiment | reduced colocalization | greater reduction effect | not significantly different | significantly reduced glycemia | food intake was greater | not present | slowed down the progression towards hyperglycemia | lower | inhibited AS160 phosphorylation | failed to do so |  |  |  |  |  | 
CN(C)C(=N)N=C(N)N [Metformin, metformin] |  |  |  |  |  |  |  |  |  |  |  |  |  | 119 to 134 | 76.1 to 92.5 | 92.4 to 109 | did not show statistically significant differences | did not show statistically significant differences | did not show statistically significant differences
